# Several values for one entry are separate records, joined by “and”; a condition that tells them apart may be missing. Equal entries are not always repeated.
# Key:
# p38-gamma = experiment: KINOMEscan; settings: 50000 nM
# Description: KINOMEscan™ selectivity screen
# (§1) Briefly, Kinase-tagged T7 phage strains were grown in parallel in an E. coli host derived from the BL21 strain. E. coli were grown to log-phase and infected with T7 phage from a frozen stock and incubated with shaking at 32°C until lysis (90-150 minutes). The kinases were produced in HEK-293 cells and subsequently tagged with DNA for qPCR detection. Streptavidin-coated magnetic beads were treated with biotinylated small molecule ligands to generate affinity resins for kinase
# (§2) inhibitor or DMSO control was performed in polypropylene 384-well plates for 1 hr at room temperature. After wash with PBS buffer containing 0.05% Tween 20, the beads were incubated in elution buffer (PBS containing 0.05 % Tween 20 and 0.5 μM non-biotinylated affinity ligand) for 30 minutes at room temperature. The kinase concentration in the eluates was measured by qPCR.
# BRAF(V600E) = experiment: KINOMEscan; settings: 50000 nM
# Description: KINOMEscan™ selectivity screen
# (§3) The assay was perfor med at DiscoveRx Corporation according the methods published previously5. Briefly, Kinase-tagged T7 phage strains were grown in parallel in an E. coli host derived from the BL21 strain. E. coli were grown to log-phase and infected with T7 phage from a frozen stock and incubated with shaking at 32°C until lysis (90-150 minutes). The kinases were produced in HEK-293 cells and subsequently tagged with DNA for qPCR detection. Streptavidin-coated magnetic beads were treated with biotinylated small molecule ligands to generate affinity resins for kinase
# as §2
# FLT3(R834Q) = experiment: KINOMEscan; settings: 50000 nM
# Description: KINOMEscan™ selectivity screen
# (§4) The assay was perfor med at DiscoveRx Corporation according the methods published previously5. […] The kinases were produced in HEK-293 cells and subsequently tagged with DNA for qPCR detection. Streptavidin-coated magnetic beads were treated with biotinylated small molecule ligands to generate affinity resins for kinase
# as §2
# RET = experiment: KINOMEscan; settings: 50000 nM
# Description: KINOMEscan™ selectivity screen
# as §3, §2
# FES = experiment: KINOMEscan; settings: 50000 nM
# Description: KINOMEscan™ selectivity screen
# as §1, §2
# MEK6 = experiment: KINOMEscan; settings: 50000 nM
# Description: KINOMEscan™ selectivity screen
# as §3, §2
# MAP4K4 = experiment: KINOMEscan; settings: 50000 nM
# Description: KINOMEscan™ selectivity screen
# as §3, §2
# MAP4K2 = experiment: KINOMEscan; settings: 50000 nM
# Description: KINOMEscan™ selectivity screen
# as §3, §2
# CSNK2A1 = experiment: KINOMEscan; settings: 50000 nM
# Description: KINOMEscan™ selectivity screen
# as §3, §2
# NEK6 = experiment: KINOMEscan; settings: 50000 nM
# Description: KINOMEscan™ selectivity screen
# as §3, §2
# PRKR = experiment: KINOMEscan; settings: 50000 nM
# Description: KINOMEscan™ selectivity screen
# as §3, §2
# EPHA5 = experiment: KINOMEscan; settings: 50000 nM
# Description: KINOMEscan™ selectivity screen
# as §3, §2
# MET = experiment: KINOMEscan; settings: 50000 nM
# Description: KINOMEscan™ selectivity screen
# as §3, §2
# YANK3 = experiment: KINOMEscan; settings: 50000 nM
# Description: KINOMEscan™ selectivity screen
# as §3, §2
# CLK1 = experiment: KINOMEscan; settings: 50000 nM
# Description: KINOMEscan™ selectivity screen
# as §1, §2
# Akt = target: T1, Akt (Mus musculus, UniProt P31750); experiment: Akt activity assay (immunoprecipitated Akt, K-Lisa); type: cell-based
# T1 construct: subjected to immunoprecipitation using protein G-plus and anti-AKT PH domain (Millipore); endogenous in cells; host or cells: Neuro 2A (mouse neuroblastoma), IGF-stimulated
# T1 sequence (P31750 whole entry, the tested form may be a part): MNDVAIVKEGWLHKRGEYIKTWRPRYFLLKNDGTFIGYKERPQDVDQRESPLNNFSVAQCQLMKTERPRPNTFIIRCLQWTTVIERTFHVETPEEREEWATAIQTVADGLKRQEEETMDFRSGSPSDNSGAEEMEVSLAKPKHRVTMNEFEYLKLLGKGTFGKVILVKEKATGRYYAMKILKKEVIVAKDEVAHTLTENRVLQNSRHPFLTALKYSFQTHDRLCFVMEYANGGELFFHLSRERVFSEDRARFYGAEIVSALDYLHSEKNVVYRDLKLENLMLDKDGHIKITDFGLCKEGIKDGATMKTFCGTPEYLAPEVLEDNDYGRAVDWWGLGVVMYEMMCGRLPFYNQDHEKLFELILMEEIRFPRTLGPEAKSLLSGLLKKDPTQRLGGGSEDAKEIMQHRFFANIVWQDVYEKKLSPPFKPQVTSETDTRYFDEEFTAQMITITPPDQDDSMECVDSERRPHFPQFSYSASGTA
# Description: After overnight starvation by incubating with serum-free DMEM, Neuro 2A cells were treated with compound G7 at various concentrations for 30 min at room temperature followed by stimulation with IGF (final concentration of 100 ng/mL) for 30 min. Cells were lysed with lysis buffer containing 1% Triton X-100 and protease/phosphatase inhibitors (Cell Signaling Technology) and subjected to immunoprecipitation using protein G-plus and anti-AKT PH domain (Millipore). The activity of the immunopurified Akt was evaluated using a K-Lisa Akt activity kit (Millipore) in accordance with manufacturer’s instructions. The activity was normalized to Akt level in the immunoprecipitates determined by quantitative western blot analysis.
# EIF2AK1 = experiment: KINOMEscan; settings: 50000 nM
# Description: KINOMEscan™ selectivity screen
# as §3, §2
# DYRK1B = experiment: KINOMEscan; settings: 50000 nM
# Description: KINOMEscan™ selectivity screen
# as §4, §2
# PKA = experiment: Western blot of PKA phosphorylation; type: cell-based, Mouse; settings: Neuro 2A cells
# Description: Neuro 2A cells were seeded in 12-well plates in DMEM containing 5% FBS for 24 hr.
# After overnight serum starvation (in 0% FBS DMEM), cells were incubated for 30 min at 37 °C with G7 or LY294002 or Torin 1 (Sigma Aldrich) at various concentrations, or DMSO control. IGF-1 was added to each well at a final concentration of 100 ng/mL. After 30-min incubation cells were washed with cold PBS and lysed with 50 µL lysis buffer containing 1% Triton X-100 and protease/phosphatase inhibitors (Cell Signaling Technology) or RIPA buffer (Santa Cruz Biotech). Samples were electrophoresed in 4–12% Bis-Tris gels (Life Technologies) at 150 V using MOPS SDS running buffer. Proteins were transferred electrophoretically to a PVDF or nitrocellulose membrane. For detection of cleaved […]
# caspase 3 a Trans-Blot Turbo Transfer System (Bio-Rad, 25 V for 25 min) with PVDF membrane were used. […]
# anti- GAPDH (14C10) antibody (#2118) (all antibodies were from Cell Signaling Technology unless indicated, 1:1000 dilution was used) at 4°C overnight, washed three times with TBS-T, then incubated with peroxidase-conjugated secondary antibody (Sigma-Aldrich) for 1 hr at room temperature. […] Band intensity was quantitated using Kodak 1D imaging analysis software. […]
# HIPK1 = experiment: KINOMEscan; settings: 50000 nM
# Description: KINOMEscan™ selectivity screen
# as §1, §2
# CLK3 = experiment: KINOMEscan; settings: 50000 nM
# Description: KINOMEscan™ selectivity screen
# as §1, §2
# LNCaP cells = experiment: MTS cell proliferation assay; type: cell-based; settings: 1 day, 40% confluent
# Description: Neuro 2A cells or NIH/3T3 cells (ATCC) were seeded at various confluency in a 96-well plate in 100 µL DMEM containing 5% FBS or 10% FBS with 1% penicillin streptomucin, respectively, at 37 °C in a 5% CO2 and 95% humidity incubator for 18 hr. To each well 1 µL inhibitor with various concentrations or DMSO was added. The final concentrations of the tested inhibitors were 0, 5, 10, 20, 40 and 80 µM for G7 and LY, and 0, 5, 10, 20, 40 and 80 nM for Torin1, based on their respective IC50 values (~µM for G7 and LY and ~ nM for Torin 1). After 24 hr, 20 µL of CellTiter 96® AQueous One Solution Reagent (Promega) were added. The plate was placed in the incubator for 2 h and absorbance at 490 nm was measured with a Synergy HT Microplate Reader (Bio-Tek).
# Fig. S8. Effect of G7 on proliferation of LNCaP cells. Cells that were 40% confluent in RPMI-1640 medium containing 10% FBS were treated with inhibitors for 1 day and subjected to MTS assays. *, µM for both G7 and LY and nM for Torin1. Data represent means ± SEM (n=3). G7, 4-phenylquinolin-2(1H)-one, LY, LY294002.
# [1] = test system: ABL1(T315I)-nonphosphorylated; experiment: KINOMEscan; settings: 50000 nM
# Description: KINOMEscan™ selectivity screen
# as §1, §2
smiles,measurement,setting,value
"Oc1cc(-c2ccccc2)c2ccccc2n1 [G7, 4-phenylquinolin-2(1H)-one]",Percent Control,p38-gamma,100%
same,Percent Control,BRAF(V600E),71%
same,Percent Control,FLT3(R834Q),76%
same,Percent Control,RET,51%
same,Percent Control,FES,92%
same,Percent Control,MEK6,72%
same,Percent Control,MAP4K4,100%
same,Percent Control,MAP4K2,100%
same,Percent Control,CSNK2A1,78%
same,Percent Control,NEK6,92%
same,Percent Control,PRKR,74%
same,Percent Control,EPHA5,95%
same,Percent Control,MET,73%
same,Percent Control,YANK3,93%
same,Percent Control,CLK1,69%
same,decrease of Akt activity,Akt; G7 at 50 µM,~ 80%
same,IC50,"Akt; IGF-stimulated Neuro 2A cells, Akt immunoprecipitated, read-out: IC50 on Akt enzymatic activity",6 µM and 6.2 µM
same,Percent Control,EIF2AK1,100%
same,Percent Control,DYRK1B,76%
same,phosphorylation (activation status) of PKA,PKA,did not alter
same,Percent Control,HIPK1,74%
same,Percent Control,CLK3,92%
same,proliferation of LNCaP prostate cancer cells,LNCaP cells,inhibited the proliferation
same,Percent Control,[1],86%
